Structures are written as SMILES. Where “and” joins values, the source holds several entries; their conditions need not be identical. Identical values can stand only once.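 The compound was tested at five concentrations on cells cultured in 96-well plates, with a 48-hour exposure period. Here, GI50 denotes the concentration required for 50% inhibition of growth. At the TGI there is no net growth.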 Where only a bound is given, the exact number is not on record here.

Among the test systems are COLO 205 colon; HCC-2998 colon; IGROV1 ovarian; NCI-H522 lung; OVCAR-3 ovarian; OVCAR-4 ovarian; RPMI-8226 leukemia; RXF 393 renal; SF-295 CNS; SF-539 CNS.
What all share (assay): inhibition of tumour cell growth, NCI panel, 48 h

For the compound `COc1c(Cl)[c]([Hg][O]C(C)=O)c(NCC(C)=O)c(OC)[c]1[Hg][O]C(C)=O`, the GI50 was 22 µM in the assay with COLO 205 colon; 16.9 µM in the assay on HCC-2998 colon; 15.6 µM with IGROV1 ovarian; 1.37 µM in the assay on NCI-H522 lung; 10.2 µM in the assay with OVCAR-3 ovarian; 20 µM in the assay with OVCAR-4 ovarian. Besides, the GI50 in the assay on RPMI-8226 leukemia was 15 µM; in the assay on RXF 393 renal, 14.4 µM; in the assay with SF-295 CNS, 20.2 µM; in the assay with SF-539 CNS, 2.92 µM. In addition, the TGI in the assay with COLO 205 colon was 54.5 µM; in the assay on HCC-2998 colon it was 39.1 µM; in the assay on IGROV1 ovarian, 31.6 µM; in the assay on NCI-H522 lung, 4 µM; with OVCAR-3 ovarian it was 21.8 µM; in the assay with OVCAR-4 ovarian it was 79.7 µM. Moreover, the TGI in the assay with RPMI-8226 leukemia is 38.8 µM; in the assay with RXF 393 renal, 30.4 µM; with SF-295 CNS, 45.2 µM; in the assay with SF-539 CNS it was 13.3 µM.

In the case of `COC1C(O)CC(OC2CC(OC3CC(O[C@@H]4C(=O)c5c(cc6cc(OC7CC(OC8CC(O)C(O)C(C)O8)C(O)C(C)O7)c(C)c(O)c6c5O)CC4[C@H](OC)[C@@H](O)C(C)=O)OC(C)C3O)OC(C)C2O)OC1C` (some centres undefined), the GI50 was 0.0113 µM in the assay on COLO 205 colon; 0.00349 µM in the assay on HCC-2998 colon; 0.0197 µM in the assay on IGROV1 ovarian; 0.016 µM with NCI-H522 lung; 0.0166 µM in the assay with OVCAR-3 ovarian; under 0.0282 µM with OVCAR-4 ovarian. Besides, the GI50 in the assay on RPMI-8226 leukemia is 0.014 µM; with RXF 393 renal, 0.0152 µM; in the assay on SF-295 CNS, 0.00752 µM; in the assay on SF-539 CNS it was 0.00902 µM. Moreover, the TGI in the assay on COLO 205 colon was 0.0639 µM; in the assay with HCC-2998 colon it was 0.0258 µM; in the assay with IGROV1 ovarian, over 33.3 µM; with NCI-H522 lung, 0.0648 µM; in the assay on OVCAR-3 ovarian, 0.597 µM; in the assay on OVCAR-4 ovarian, over 23.9 µM. The TGI with RPMI-8226 leukemia was over 33.3 µM; in the assay with RXF 393 renal, 0.364 µM; in the assay with SF-295 CNS, over 33.3 µM; in the assay with SF-539 CNS, 0.463 µM.

`N#Cc1ccc(NC(=O)Nc2nc3ccc(OC(F)(F)F)cc3s2)cc1`: the GI50 in the assay with COLO 205 colon was 1.68 µM; in the assay on HCC-2998 colon, 1.28 µM; in the assay on IGROV1 ovarian, 2 µM; in the assay with NCI-H522 lung, 0.427 µM; in the assay with OVCAR-3 ovarian, 0.577 µM; in the assay on OVCAR-4 ovarian, 1.64 µM. The GI50 is 1 µM with RPMI-8226 leukemia, 1.87 µM in the assay on RXF 393 renal, 1.18 µM in the assay on SF-295 CNS and 2.9 µM in the assay on SF-539 CNS. Moreover, the TGI is 3.9 µM with COLO 205 colon; 6.04 µM in the assay on HCC-2998 colon; 16.1 µM in the assay on IGROV1 ovarian; 3.09 µM in the assay with NCI-H522 lung; 14.3 µM in the assay with OVCAR-3 ovarian; 44 µM with OVCAR-4 ovarian. Further, the TGI in the assay with RPMI-8226 leukemia was determined as 13.3 µM; in the assay on RXF 393 renal, 7.39 µM; in the assay with SF-295 CNS it was 4.22 µM; in the assay with SF-539 CNS, 10.1 µM.

In the case of `CCC1(N)C(=O)OCc2c1cc1n(c2=O)Cc2cc3ccccc3nc2-1` (centres undefined), the GI50 is 16.7 µM in the assay on COLO 205 colon; 14.1 µM in the assay on HCC-2998 colon; 15.6 µM in the assay on IGROV1 ovarian; 8.51 µM in the assay with NCI-H522 lung; 17.2 µM in the assay with OVCAR-3 ovarian; 38.2 µM in the assay with OVCAR-4 ovarian. The GI50 with RPMI-8226 leukemia was 3.66 µM; in the assay on RXF 393 renal, 15.4 µM; in the assay on SF-295 CNS, 3.45 µM; in the assay with SF-539 CNS, 2.93 µM. Further, the TGI was over 100 µM with COLO 205 colon; 41.1 µM and > 100 µM in the assay with HCC-2998 colon; over 100 µM in the assay on IGROV1 ovarian; over 100 µM in the assay on NCI-H522 lung; 42.6 µM and > 100 µM in the assay with OVCAR-3 ovarian; over 100 µM in the assay on OVCAR-4 ovarian. Besides, the TGI is 81.5 µM and > 100 µM in the assay with RPMI-8226 leukemia; 63.1 µM and > 100 µM with RXF 393 renal; 50.2 µM and > 100 µM with SF-295 CNS; 11.8 µM and > 47.9 µM in the assay on SF-539 CNS.

For the compound `O=S(=O)(NCCNc1cc(-c2cn(-c3ccccc3)nc2-c2cccc(O)c2)ccn1)c1ccc(Br)cc1`, the GI50 with COLO 205 colon is 1.86 µM; in the assay with HCC-2998 colon it was 2.14 µM; in the assay on IGROV1 ovarian it was 3.33 µM; in the assay with NCI-H522 lung, 2.02 µM; in the assay with OVCAR-3 ovarian, 2.01 µM; in the assay with OVCAR-4 ovarian, 2.32 µM. Further, the GI50 with RPMI-8226 leukemia was 2.21 µM; in the assay with RXF 393 renal, 2.38 µM; in the assay with SF-295 CNS, 1.88 µM; in the assay on SF-539 CNS, 1.81 µM. The TGI with COLO 205 colon was 3.81 µM; in the assay with HCC-2998 colon, 4.1 µM; in the assay on IGROV1 ovarian, 15.5 µM; with NCI-H522 lung, 4.69 µM; in the assay on OVCAR-3 ovarian it was 4.09 µM; in the assay on OVCAR-4 ovarian, 13.7 µM. In addition, the TGI in the assay on RPMI-8226 leukemia was found to be 5.73 µM; in the assay with RXF 393 renal it was 6.96 µM; with SF-295 CNS it was 3.94 µM; with SF-539 CNS, 4.24 µM.

Turning to `COc1cc2ccc3c4cc(OC)c(OC(C)C)cc4c[n+](C)c3c2cc1OC`, the TGI with COLO 205 colon was 36.5 µM; in the assay on HCC-2998 colon, over 100 µM; in the assay with IGROV1 ovarian, over 100 µM; in the assay with NCI-H522 lung it was 70.1 µM; with OVCAR-3 ovarian it was over 100 µM; in the assay with OVCAR-4 ovarian, over 100 µM. Besides, the TGI in the assay with RPMI-8226 leukemia, in the assay with RXF 393 renal, in the assay on SF-295 CNS and in the assay on SF-539 CNS was over 100 µM in each case.

With `CCCC(=O)Nc1c(I)cc(I)c(CC(CC)C(=O)O)c1I` (centres undefined), the GI50 with COLO 205 colon, in the assay with HCC-2998 colon, in the assay on IGROV1 ovarian, with NCI-H522 lung, in the assay with OVCAR-3 ovarian and with OVCAR-4 ovarian was over 100 µM throughout. Further, the GI50 in the assay on RPMI-8226 leukemia, with RXF 393 renal, with SF-295 CNS and in the assay with SF-539 CNS was over 100 µM in each case. Besides, the TGI in the assay on COLO 205 colon, in the assay on HCC-2998 colon, with IGROV1 ovarian, in the assay with NCI-H522 lung, in the assay on OVCAR-3 ovarian and with OVCAR-4 ovarian was over 100 µM in each case. The TGI with RPMI-8226 leukemia, with RXF 393 renal, in the assay on SF-295 CNS and with SF-539 CNS was over 100 µM in each case.

For `COC(=O)CCCNC(=O)C(=O)c1c(O)c(O)c(C(C)C)c2cc(C)c(-c3c(C)cc4c(C(C)C)c(O)c(O)c(C(=O)C(=O)NCCCC(=O)OC)c4c3O)c(O)c12`, the GI50 in the assay with COLO 205 colon is 0.382 µM; in the assay on HCC-2998 colon it was 0.679 µM; in the assay with IGROV1 ovarian it was 0.499 µM; in the assay with NCI-H522 lung, 0.379 µM; with OVCAR-3 ovarian, 0.32 µM; in the assay on OVCAR-4 ovarian it was 0.23 µM. The GI50 with RPMI-8226 leukemia was 0.592 µM; in the assay with RXF 393 renal it was 0.651 µM; in the assay with SF-295 CNS, 0.25 µM; in the assay with SF-539 CNS it was 0.997 µM. Also, the TGI with COLO 205 colon came out at 2.03 µM; with HCC-2998 colon, 7.98 µM; with IGROV1 ovarian, 13 µM; in the assay on NCI-H522 lung, 1.9 µM; with OVCAR-3 ovarian, 3.46 µM; in the assay with OVCAR-4 ovarian it was 27 µM. In addition, the TGI is over 32.5 µM with RPMI-8226 leukemia, 5 µM in the assay with RXF 393 renal, 5.22 µM in the assay with SF-295 CNS and 5.17 µM with SF-539 CNS.

Regarding `CC(C)=CCc1c(O)c(C(=O)CC(C)C)c(O)c2c(-c3ccccc3)cc(=O)oc12`, the GI50 in the assay with COLO 205 colon is 9.75 µM; with HCC-2998 colon, 11.7 µM; in the assay on IGROV1 ovarian it was 9.7 µM; in the assay with NCI-H522 lung, 7.02 µM; in the assay on OVCAR-3 ovarian it was 4.33 µM; in the assay on OVCAR-4 ovarian it was 9.98 µM. In addition, the GI50 in the assay with RPMI-8226 leukemia is 2.68 µM; with RXF 393 renal, 15.8 µM; with SF-295 CNS it was 10 µM; in the assay with SF-539 CNS, 5.82 µM. For the same compound, the TGI with COLO 205 colon was 19 µM; in the assay with HCC-2998 colon, over 50 µM; with IGROV1 ovarian, over 50 µM; with NCI-H522 lung it was 28.2 µM; in the assay on OVCAR-3 ovarian, over 50 µM; in the assay on OVCAR-4 ovarian, 35.6 µM. For the same compound, the TGI was 16.6 µM in the assay with RPMI-8226 leukemia, over 50 µM in the assay on RXF 393 renal, 43.5 µM in the assay with SF-295 CNS and 22.5 µM with SF-539 CNS.

With `CCN(CC)c1ccc(/C=N/NC(=O)c2ccccc2Nc2ccnc(C(F)(F)F)c2)c(O)c1`, the GI50 was 0.212 µM in the assay on COLO 205 colon; 0.192 µM in the assay with HCC-2998 colon; 0.0747 µM in the assay on IGROV1 ovarian; 0.287 µM with NCI-H522 lung; 0.0845 µM in the assay on OVCAR-3 ovarian; 0.0856 µM with OVCAR-4 ovarian. Further, the GI50 is 0.0417 µM with RPMI-8226 leukemia, 0.226 µM in the assay on RXF 393 renal, 0.184 µM with SF-295 CNS and 0.248 µM with SF-539 CNS. Further, the TGI in the assay on COLO 205 colon is over 100 µM; with HCC-2998 colon, over 100 µM; with IGROV1 ovarian it was 71.4 µM; in the assay on NCI-H522 lung it was 3.55 µM; in the assay with OVCAR-3 ovarian it was over 100 µM; in the assay with OVCAR-4 ovarian it was over 100 µM. Moreover, the figures for the TGI in the assay with RPMI-8226 leukemia, with RXF 393 renal and in the assay on SF-295 CNS were 0.601 µM, over 24.6 µM and 6.27 µM, respectively.

For the compound `C[C@H](C(O)CC(=O)C(C)(C)O)[C@H]1CC[C@@]2(C)[C@@H]3CC[C@H]4C(C)(C)[C@@H](OC5OC(COC6OC(CO)C(O)C(O)C6O)C(O)C(O)C5O)CC[C@]4(C)C3=CC[C@]12C` (some centres undefined), the TGI in the assay with COLO 205 colon, with HCC-2998 colon, in the assay with IGROV1 ovarian, in the assay with NCI-H522 lung, in the assay with OVCAR-3 ovarian and in the assay with OVCAR-4 ovarian was over 100 µM in each case. The TGI in the assay with RPMI-8226 leukemia, in the assay on RXF 393 renal, with SF-295 CNS and in the assay on SF-539 CNS was over 100 µM each time.
